# In US10597388B2, “Pyridazinone herbicides” (FMC CORPORATION, priority 2014, dated 2020):
# What was measured:
# Test in all cases: Test D controlled growth environment herbicide test, pre- and postemergence
# Type in all cases: in vivo
# [1] = tested on: barley, spring (spring barley, Hordeum vulgare)
# Procedure, shortened: (§1)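 Pre-emergence: seeds sown in silt loam soil were sprayed with compound in a non-phytotoxic solvent mix containing surfactant. Post-emergence: plants at 2 to 18 cm (1- to 4-leaf stage) in peat moss/vermiculite medium got the same formulation. Visual 0–100 rating versus controls after 14 to 21 d.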
# [2] = tested on: blackgrass (Alopecurus myosuroides)
# Procedure, shortened: as §1
# [3] = tested on: bluegrass (annual bluegrass, Poa annua)
# Procedure, shortened: as §1
# [4] = tested on: buckwheat, wild (wild buckwheat, Polygonum convolvulus)
# Procedure, shortened: as §1
# [5] = tested on: canarygrass (Phalaris minor)
# Procedure, shortened: as §1
# [6] = tested on: chamomile (scentless chamomile, Matricaria inodora)
# Procedure, shortened: as §1
# [7] = tested on: field violet (Viola arvensis)
# Procedure, shortened: as §1
# [8] = tested on: foxtail, green (green foxtail, Setaria viridis)
# Procedure, shortened: as §1
# [9] = tested on: oat, wild (wild oat, Avena fatua)
# Procedure, shortened: as §1
# [10] = tested on: pigweed (Amaranthus retroflexus)
# Procedure, shortened: as §1
# [11] = tested on: radish, wild (wild radish, Raphanus raphanistrum)
# Procedure, shortened: as §1
# [12] = tested on: ryegrass, Italian (Italian ryegrass, Lolium multiflorum)
# Procedure, shortened: as §1
# [13] = tested on: wheat, spring (spring wheat, Triticum aestivum)
# Procedure, shortened: as §1
# [14] = Postemergence, 31 g ai/ha, scale 0 to 100 (0 no effect, 100 complete control)
# [15] = Postemergence, 125 g ai/ha, visual rating on scale 0 (no effect) to 100 (complete control), 14 to 21 d
# [16] = Postemergence, 250 g ai/ha, scale 0 to 100 (0 no effect, 100 complete control)
# [17] = Preemergence, 62 g ai/ha, scale 0 to 100 (0 no effect, 100 complete control)
# [18] = Preemergence, 125 g ai/ha, scale 0 to 100 (0 no effect, 100 complete control)
# [19] = Preemergence, 250 g ai/ha, scale 0 to 100 (0 no effect, 100 complete control)
# [20] = postemergence, 62 g ai/ha, scale 0 to 100, 0 no effect, 100 complete control
smiles,measurement,setting,value
CC(=O)Oc1c(Br)nn(C)c(=O)c1-c1c(C)ccc2ccccc12 [Compound 129],"Barley, Spring plant response rating",[1]; [14],20
same,"Plant response rating, Barley, Spring",[1]; [15],30
same,"Plant response rating, Barley, Spring",[1]; [16],30
same,"Plant response rating (scale of 0 to 100), Barley, Spring","[1]; Preemergence, 31 g ai/ha",0
same,"Plant response rating, Barley, Spring",[1]; [17],0
same,"Plant response rating, Barley, Spring",[1]; [18],0
same,"Plant response rating, Barley, Spring",[1]; [19],20
same,"Plant response rating, Barley, Spring",[1]; [20],25
same,Blackgrass plant response rating,[2]; [14],35
same,"Plant response rating, Blackgrass",[2]; [15],60
same,"Plant response rating, Blackgrass",[2]; [16],75
same,"Plant response rating (scale of 0 to 100), Blackgrass","[2]; Preemergence, 31 g ai/ha",10
same,"Plant response rating, Blackgrass",[2]; [17],15
same,"Plant response rating, Blackgrass",[2]; [18],55
same,"Plant response rating, Blackgrass",[2]; [19],75
same,"Plant response rating, Blackgrass",[2]; [20],45
same,Bluegrass plant response rating,[3]; [14],10
same,"Plant response rating, Bluegrass",[3]; [15],20
same,"Plant response rating, Bluegrass",[3]; [16],30
same,"Plant response rating (scale of 0 to 100), Bluegrass","[3]; Preemergence, 31 g ai/ha",0
same,"Plant response rating, Bluegrass",[3]; [17],10
same,"Plant response rating, Bluegrass",[3]; [18],25
same,"Plant response rating, Bluegrass",[3]; [19],60
same,"Plant response rating, Bluegrass",[3]; [20],15
same,"Buckwheat, Wild plant response rating",[4]; [14],100
same,"Plant response rating, Buckwheat, Wild",[4]; [15],100
same,"Plant response rating, Buckwheat, Wild",[4]; [16],100
same,"Plant response rating (scale of 0 to 100), Buckwheat, Wild","[4]; Preemergence, 31 g ai/ha",0
same,"Plant response rating, Buckwheat, Wild",[4]; [17],30
same,"Plant response rating, Buckwheat, Wild",[4]; [18],85
same,"Plant response rating, Buckwheat, Wild",[4]; [19],85
same,"Plant response rating, Buckwheat, Wild",[4]; [20],100
same,Canarygrass plant response rating,[5]; [14],30
same,"Plant response rating, Canarygrass",[5]; [15],75
same,"Plant response rating, Canarygrass",[5]; [16],80
same,"Plant response rating (scale of 0 to 100), Canarygrass","[5]; Preemergence, 31 g ai/ha",5
same,"Plant response rating (scale of 0 to 100), Canarygrass","[5]; Preemergence, 62 g ai/ha",15
same,"Plant response rating, Canarygrass",[5]; [18],60
same,"Plant response rating, Canarygrass",[5]; [19],90
same,"Plant response rating, Canarygrass",[5]; [20],55
same,Chamomile plant response rating,[6]; [14],100
same,"Plant response rating, Chamomile",[6]; [15],100
same,"Plant response rating, Chamomile",[6]; [16],100
same,"Plant response rating (scale of 0 to 100), Chamomile","[6]; Preemergence, 31 g ai/ha",100
same,"Plant response rating (scale of 0 to 100), Chamomile","[6]; Preemergence, 62 g ai/ha",100
same,"Plant response rating, Chamomile",[6]; [18],100
same,"Plant response rating, Chamomile",[6]; [19],100
same,"Plant response rating, Chamomile",[6]; [20],98
same,Field Violet plant response rating,[7]; [14],65
same,"Plant response rating, Field Violet",[7]; [15],70
same,"Plant response rating, Field Violet",[7]; [16],75
same,"Plant response rating (scale of 0 to 100), Field Violet","[7]; Preemergence, 31 g ai/ha",85
same,"Plant response rating (scale of 0 to 100), Field Violet","[7]; Preemergence, 62 g ai/ha",85
same,"Plant response rating, Field Violet",[7]; [18],85
same,"Plant response rating, Field Violet",[7]; [19],100
same,"Plant response rating, Field Violet",[7]; [20],70
same,"Foxtail, Green plant response rating",[8]; [14],80
same,"Plant response rating, Foxtail, Green",[8]; [15],85
same,"Plant response rating, Foxtail, Green",[8]; [16],95
same,"Plant response rating (scale of 0 to 100), Foxtail, Green","[8]; Preemergence, 31 g ai/ha",35
same,"Plant response rating (scale of 0 to 100), Foxtail, Green","[8]; Preemergence, 62 g ai/ha",70
same,"Plant response rating, Foxtail, Green",[8]; [18],80
same,"Plant response rating, Foxtail, Green",[8]; [19],95
same,"Plant response rating, Foxtail, Green",[8]; [20],80
same,"Oat, Wild plant response rating",[9]; [14],90
same,"Plant response rating, Oat, Wild",[9]; [15],95
same,"Plant response rating, Oat, Wild",[9]; [16],100
same,"Plant response rating (scale of 0 to 100), Oat, Wild","[9]; Preemergence, 31 g ai/ha",75
same,"Plant response rating (scale of 0 to 100), Oat, Wild","[9]; Preemergence, 62 g ai/ha",75
same,"Plant response rating, Oat, Wild",[9]; [18],90
same,"Plant response rating, Oat, Wild",[9]; [19],100
same,"Plant response rating, Oat, Wild",[9]; [20],90
same,Pigweed plant response rating,[10]; [14],98
same,"Plant response rating, Pigweed",[10]; [15],100
same,"Plant response rating, Pigweed",[10]; [16],100
same,"Plant response rating (scale of 0 to 100), Pigweed","[10]; Preemergence, 31 g ai/ha",100
same,"Plant response rating (scale of 0 to 100), Pigweed","[10]; Preemergence, 62 g ai/ha",100
same,"Plant response rating, Pigweed",[10]; [18],100
same,"Plant response rating, Pigweed",[10]; [19],98
same,"Plant response rating, Pigweed",[10]; [20],98
same,"Radish, Wild plant response rating",[11]; [14],60
same,"Plant response rating, Radish, Wild",[11]; [15],80
same,"Plant response rating, Radish, Wild",[11]; [16],98
same,"Plant response rating (scale of 0 to 100), Radish, Wild","[11]; Preemergence, 31 g ai/ha",80
same,"Plant response rating (scale of 0 to 100), Radish, Wild","[11]; Preemergence, 62 g ai/ha",100
same,"Plant response rating, Radish, Wild",[11]; [18],100
same,"Plant response rating, Radish, Wild",[11]; [19],100
same,"Plant response rating, Radish, Wild",[11]; [20],75
same,"Ryegrass, Italian plant response rating",[12]; [14],80
same,"Plant response rating, Ryegrass, Italian",[12]; [15],90
same,"Plant response rating, Ryegrass, Italian",[12]; [16],90
same,"Plant response rating (scale of 0 to 100), Ryegrass, Italian","[12]; Preemergence, 31 g ai/ha",70
same,"Plant response rating (scale of 0 to 100), Ryegrass, Italian","[12]; Preemergence, 62 g ai/ha",80
same,"Plant response rating, Ryegrass, Italian",[12]; [18],98
same,"Plant response rating, Ryegrass, Italian",[12]; [19],100
same,"Plant response rating, Ryegrass, Italian",[12]; [20],85
same,"Wheat, Spring plant response rating",[13]; [14],25
same,"Plant response rating, Wheat, Spring",[13]; [15],50
same,"Plant response rating, Wheat, Spring",[13]; [16],70
same,"Plant response rating (scale of 0 to 100), Wheat, Spring","[13]; Preemergence, 31 g ai/ha",25
same,"Plant response rating (scale of 0 to 100), Wheat, Spring","[13]; Preemergence, 62 g ai/ha",50
same,"Plant response rating, Wheat, Spring",[13]; [18],60
same,"Plant response rating, Wheat, Spring",[13]; [19],75
same,"Plant response rating, Wheat, Spring",[13]; [20],35
